The values below come from patent US10758530B2, “Carboxamide derivatives useful as rsk inhibitors” (PHOENIX MOLECULAR DESIGNS, priority 2016, dated 2020).

“Also recorded” adds a separate entry of the source. Where a name gives a salt, the structure may show the parent alone.

The nature of data set [1]: Solubility assessment (20 mg/ml solution, precipitate formation, pH strips). It is filed as physicochemical. To be noted: for Solubility, 20 mg/ml solution: dissolved in DMSO (100 mM); for pH of 20 mg/ml solution: dissolved in DMSO. The protocol:
Solubility is an important property for therapeutic drug candidates. Poor solubility can lead to low bioavailability resulting in suboptimal drug delivery. It can also prevent the evaluation of test agents in animals because the concentration(s) needed to achieve the desired effect cannot be achieved to poor solubility. For solubility assessments, small molecules targeting RSK were compared. For these assessments, 100 mM solutions of the compounds dissolved in DMSO were diluted in DMEM growth media (Life Technologies) supplemented with fetal bovine serum (FBS, Life Technologies) and 100 units/ml penicillin and 100 units/mi streptomycin (Life Technologies) to make 20 mg/ml solutions. Once diluted, the solutions were vortexed and examined for the formation of precipitates. […] For Compound 26, a 100 mM solution of the compound dissolved in DMSO was diluted in phosphate buffered saline (Life Technologies) to make a 20 mg/ml solution. The stock of […] was chosen because this is the upper end of what would be required to dose mice for a range of studies including MTD, PK, PD and efficacy. The pH of this solution was determined to be 2, as previously described. […] At high concentrations some RSK inhibitors were highly soluble while others were not. Compound 0 is (R)—N-(1-benzyl-1H-pyrazol-4-yl)-9-methyl-6-oxo-6,7,8,9-tetrahydropyrido[3′,2′:4,5]pyrrolo[1,2-a]pyrazine-2-carboxamide. Compound 0 was not soluble, whereas Compounds 18, 20, 21, 25 and 26 were soluble under the same conditions (Table 5).

Data set [2] relates to SUM149-PTXR. Put plainly: Monolayer growth inhibition, Alamar blue assay. The class given is cell-based. To be noted: Homo sapiens, 120 h; TNBC, BRCA mutant; 5 days, single dose.
Method: (§2) 1×10^3 cells per well were seeded for a final volume of 200 μl per well and plates were incubated for 5 days at 37° C. in a humidified incubator with 5% CO2. Following the incubation period, cell survival was quantified by Alamar blue assay (Life Technologies). Briefly, media from each well was replaced with 100 μl of phosphate buffer saline (PBS, Life Technologies) and cells were incubated with 5% Alamar blue, which incorporates a propriety redox indicator that changes colour in response to metabolic activity, for up to 2 hours. During this period of incubation, the absorbance at 570 nm and 600 nm was measured at various time points, depending on the cell line or sample. Percent survival was calculated by comparing the absorbance ratio of the test well to the control well multiplied by 100%, as indicated in the following formula:
Data set [3] concerns SUM149-PTXR. Put plainly: Monolayer growth inhibition, crystal violet assay. It is filed as cell-based. Particulars: Homo sapiens, 120 h; TNBC, BRCA mutant; 5 days, single dose.
The test system of data set [4] is All cell lines of Tables 6A/6B. Put plainly: Monolayer growth inhibition, Alamar blue assay, range over all cell lines. To be noted: 120 h, read-out: IC50 Values - Alamar Blue (5 Days), Range, All. The class given is cell-based.
Method: as §2
Data set [5] relates to All cell lines of Tables 7A/7B. The data set can be described thus: Monolayer growth inhibition, crystal violet assay, range over all cell lines. It is filed as cell-based. To be noted: 120 h, read-out: IC50 Values - Crystal Violet (5 Days), Range, All.
A further data set relates to CIITA. The data set can be described thus: CIITA mRNA expression in MDA-MB-231 and JIMT-1 cells. It is filed as cell-based, Human. Particulars: Compound 16 2 or 4 uM; Compound 18 1, 2, or 4 uM. An excerpt:
(§1) A key feature of cancer is low immunogenicity. This can occur by several mechanisms that allow the cells to escape immune recognition. […] HLA-DRA is a member of MHC-II genes and CIITA is the master regulator of MHC II transcription. Thus it was surprising that CIITA, which would be expected to regulate MHC II gene expression, was not altered by RSK inhibition. […] HLA-DRA is important for immune recognition while PD-L1 is involved in immune checkpoints.

In data set [6] the test system is phosphorylated Y-box binding protein-1 (YB-1) at serine 102 (P-YB-1 S102). Put plainly: Immunoblotting of P-YB-1 (cell signalling inhibition) in MDA-MB-231 cells.
Method: Generation of cellular extracts: Following desired experimental conditions, breast cancer cell lines grown and treated in 6 well plates or 100 mm culture dishes (Grenier Bio-One) were placed on ice and the supernatant from each well was removed and the cells were washed in cold PBS. Following removal of PBS, cells were exposed to radioimmunoprecipitation assay (RIPA) buffer (50 mM Tris-HCl (pH 8), 150 mM NaCl, 1% NP-40, 0.5% sodium deoxycholate, 0.1% SDS; Fisher Scientific) supplemented with 1% phosphatase inhibitor (Fisher Scientific) and 1% protease inhibitor (Fisher Scientific) for 10 minutes. Samples were transferred to eppendorf tubes, vortexed and then centrifuged at 14 000 rpm for 10 minutes. Supernatants were collected as whole cell lysates. For mouse tumour tissues, each sample was place in a 35 mm culture dish with complete RIPA lysis buffer. The samples were diced in the buffer on ice with a sterile scalpel (VWR) and the buffer and tissue were transferred to an eppendorf tube. The samples were left on ice for 10 minutes with periodic vortexing every 2 to 3 minutes. The samples were then transferred to a Qiashredder (Qiagen) and centrifuged at 14 000 rpm for 2 minutes. The flow through was transferred to a new eppendorf tube and the samples were centrifuged again at 14 000 rpm for 5 minutes. Supernatants were collected as whole cell lysates.
Immunoblotting: To begin, the protein content of the lysates was measured using the Bicinchoninic Acid (BCA) Protein Assay Kit (Pierce), which included a protein standard curve generated with bovine serum albumin. […] For certain immunoblots, bands of proteins of interest were scanned and band intensity ratios were determined by densitometric analysis (ImageJ). […] To assess whether cells are actively undergoing cell death, the activity of poly ADP ribose polymerase (PARP) (1:1000 CST) was also measured using the immunoblotting method.
The next data set relates to HLA-DRA mRNA. The data set can be described thus: HLA-DRA mRNA expression in MDA-MB-231 and JIMT-1 cells. The class given is cell-based, Human. To be noted: Compound 16 2 or 4 uM; Compound 18 1, 2, or 4 uM.
Source text: as §1

For data set [7], the system named is CD274. Put plainly: CD274 (PD-L1 gene) expression in MDA-MB-231 cells. The class given is cell-based, Human. To be noted: Compound 16 2 or 4 uM; Compound 18 1, 2, or 4 uM.
Source text: as §1

The test system of data set [8] is CD274. Put plainly: CD274 (PD-L1 gene) expression in JIMT-1 cells. Particulars: 1-20 uM. It is filed as cell-based, Human.
Source text: as §1

In a further data set the test system is P-YB-1. Put plainly: Pharmacodynamics: P-YB-1 signalling in MDA-MB-231 xenograft tumors (immunoblotting). To be noted: n=3 treated 3 days, n=9 treated 21 days.
Setting [9] is: diluted in DMEM, hydrochloride salt.
Setting [10] is: diluted in PBS, hydrochloride salt.

As to `C[C@@H]1CNC(=O)c2cc3ccc(C(=O)Nc4cnn(Cc5ccccc5)c4)nc3n21` [Compound 0, (R)—N-(1-benzyl-1H-pyrazol-4-yl)-9-methyl-6-oxo-6,7,8,9-tetrahydropyrido[3′,2′:4,5]pyrrolo[1,2-a]pyrazine-2-carboxamide, reference compound], in data set [1], the “Solubility for systemic delivery in mice (qualitative)” value was “poor or nonexistent solubility”. Moreover, the “Solubility, 20 mg/ml solution” value in [1] (diluted in DMEM) is “not soluble; also recorded: Precipitate”.

On to `C[C@@H]1CNC(=O)c2cc3ccc(NC(=O)c4cnn(Cc5ccccc5)c4)cc3n21` [Compound 11, (R)-1-benzyl-N-(4-methyl-1-oxo-1,2,3,4-tetrahydropyrazino[1,2-a]indol-7-yl)-1H-pyrazole-4-carboxamide], for which the figures for the IC50 with SUM149-PTXR [2] and in the data set on SUM149-PTXR [3] were 36.4 ± 11.9 µM and 44.6 ± 3.9 µM, respectively.

For the compound `C[C@@H]1CNC(=O)c2cc3ccc(NC(=O)c4cnn(Cc5ccccc5)c4)nc3n21` [Compound 15, (R)-1-benzyl-N-(9-methyl-6-oxo-6,7,8,9-tetrahydropyrido[3′,2′:4,5]pyrrolo[1,2-a]pyrazin-2-yl)-1H-pyrazole-4-carboxamide], the IC50 is 9.2 ± 3 µM in the data set with SUM149-PTXR [2], 3.6 to 21.3 µM in [4], 5.9 to 21 µM in [5] and 8.8 ± 2.2 µM in the data set with SUM149-PTXR [3].

Consider `C[C@@H]1CNC(=O)c2cc3ccc(C(=O)Nc4cnn(Cc5cccc(N)c5)c4)nc3n21` [Compound 16, (R)—N-(1-(3-aminobenzyl)-1H-pyrazol-4-yl)-9-methyl-6-oxo-6,7,8,9-tetrahydropyrido[3′,2′:4,5]pyrrolo[1,2-a]pyrazine-2-carboxamide], for which the IC50 in the data set with SUM149-PTXR [2] was 2.5 ± 0.4 µM; in data set [4], 0.9 to 17.4 µM; in data set [5] it was 1.2 to 13.3 µM; with SUM149-PTXR [3] it was 3.5 ± 1.2 µM. For the same compound, in the data set on CIITA, the “mRNA expression of CIITA” value is “little effect”. The “Loss of P-YB-1” value in data set [6] (0.01-1 uM, 96 hrs) is “dose dependent loss of P-YB-1”. In addition, in the data set with HLA-DRA mRNA, the “HLA-DRA mRNA levels” value is recorded as “elevated levels of HLA-DRA mRNA”. Moreover, the “Levels of CD274 in MDA-MB-231 cells” value in the data set on CD274 [7] is recorded as “reduced levels of CD274”.

For `C[C@@H]1CNC(=O)c2cc3ccc(C(=O)Nc4cnn(Cc5ccccc5N)c4)nc3n21` [Compound 17, (R)—N-(1-(2-aminobenzyl)-1H-pyrazol-4-yl)-9-methyl-6-oxo-6,7,8,9-tetrahydropyrido[3′,2′:4,5]pyrrolo[1,2-a]pyrazine-2-carboxamide], the IC50 in the data set on SUM149-PTXR [2] is 4.2 ± 1.5 µM; in data set [4], 1.2 to 12.6 µM; in [5] it was 1 to 8.9 µM; in the data set on SUM149-PTXR [3], 5.2 ± 0.6 µM.

Consider `C[C@@H]1CNC(=O)c2cc3ccc(C(=O)Nc4cnn(Cc5ccc(N)cc5)c4)nc3n21` [Compound 18, (R)—N-(1-(4-aminobenzyl)-1H-pyrazol-4-yl)-9-methyl-6-oxo-6,7,8,9-tetrahydropyrido[3′,2′:4,5]pyrrolo[1,2-a]pyrazine-2-carboxamide], for which, in the data set on CIITA, the “mRNA expression of CIITA” value is reported as “little effect”. Also, in data set [1] (diluted in DMEM), the “Solubility, 20 mg/ml solution” value is on record as “Soluble” and the “pH of 20 mg/ml solution” value is reported as 9. The “CD274 in JIMT-1 cells” value with CD274 [8] is recorded as “inhibited CD274”. The “Loss of P-YB-1” value in data set [6] (0.01-1 uM, 96 hrs) was “dose dependent loss of P-YB-1”. The “HLA-DRA mRNA levels” value with HLA-DRA mRNA is “elevated levels of HLA-DRA mRNA”. Moreover, the “Levels of CD274 in MDA-MB-231 cells” value in the data set with CD274 [7] is on record as “reduced levels of CD274”.

In the case of `C[C@@H]1CNC(=O)c2cc3ccc(NC(=O)c4cnn(Cc5cccc(N)c5)c4)nc3n21` [Compound 19, (R)-1-(3-aminobenzyl)-N-(9-methyl-6-oxo-6,7,8,9-tetrahydropyrido[3′,2′:4,5]pyrrolo[1,2-a]pyrazin-2-yl)-1H-pyrazole-4-carboxamide], the IC50 in the data set with SUM149-PTXR [2] is 14.1 ± 4.3 µM; in data set [4] it was 10.5 to 37.3 µM; in data set [5], 7.4 to 34 µM; with SUM149-PTXR [3], 13 ± 1.3 µM.

On to `C[C@@H]1CNC(=O)c2cc3ccc(C(=O)Nc4cnn(CC5CCN(C)CC5)c4)nc3n21` [Compound 20, (R)-9-methyl-N-(1-((1-methylpiperidin-4-yl)methyl)-1H-pyrazol-4-yl)-6-oxo-6,7,8,9-tetrahydropyrido[3′,2′:4,5]pyrrolo[1,2-a]pyrazine-2-carboxamide], for which, in data set [1] (diluted in DMEM), the “Solubility, 20 mg/ml solution” value is on record as “Soluble” and the “pH of 20 mg/ml solution” value came out at 8.

As to `C[C@@H]1CNC(=O)c2cc3ccc(C(=O)Nc4ccccc4C(N)=O)nc3n21` [Compound 21, (R)—N-(2-carbamoylphenyl)-9-methyl-6-oxo-6,7,8,9-tetrahydropyrido[3′,2′:4,5]pyrrolo[1,2-a]pyrazine-2-carboxamide], the IC50 in the data set with SUM149-PTXR [2] is 1.5 ± 0.8 µM; in data set [4], 1.2 to 14.7 µM; in data set [5], 1.1 to 11.3 µM; in the data set with SUM149-PTXR [3], 2 ± 0.2 µM. Further, the “Solubility, 20 mg/ml solution” value in [1] (diluted in DMEM) is listed as “Soluble”. Moreover, in data set [1] (diluted in DMEM), the “pH of 20 mg/ml solution” value worked out at 9.

For `C[C@@H]1CNC(=O)c2cc3ccc(C(=O)Nc4cnn(Cc5ccc(C(F)(F)F)cc5)c4)nc3n21` [Compound 22, (R)-9-methyl-6-oxo-N-(1-(4-(trifluoromethyl)benzyl)-1H-pyrazol-4-yl)-6,7,8,9-tetrahydropyrido[3′,2′:4,5]pyrrolo[1,2-a]pyrazine-2-carboxamide], the IC50 with SUM149-PTXR [2] is 7.8 ± 4.6 µM; in data set [4], 4.5 to 17.1 µM; in data set [5], 2.6 to 14.2 µM; in the data set on SUM149-PTXR [3], 8 ± 1.3 µM. Moreover, in [1] (diluted in DMEM), the “Solubility, 20 mg/ml solution” value is “Precipitate”.

With `C[C@@H]1CNC(=O)c2cc3ccc(C(=O)Nc4cnn(Cc5ccc(F)cc5F)c4)nc3n21` [Compound 23, (R)—N-(1-(2,4-difluorobenzyl)-1H-pyrazol-4-yl)-9-methyl-6-oxo-6,7,8,9-tetrahydropyrido[3′,2′:4,5]pyrrolo[1,2-a]pyrazine-2-carboxamide], the IC50 in the data set with SUM149-PTXR [2] was 5.1 ± 4 µM; in data set [4], 1.1 to 19.8 µM; in [5], 1.1 to 15 µM; in the data set with SUM149-PTXR [3], 5 ± 2.4 µM. Moreover, the “Solubility, 20 mg/ml solution” value in [1] (diluted in DMEM) was “Precipitate”.

On to `C[C@@H]1CNC(=O)c2c(Cl)c3ccc(C(=O)Nc4cnn(Cc5ccccc5)c4)nc3n21` [Compound 24, (R)—N-(1-benzyl-1H-pyrazol-4-yl)-5-chloro-9-methyl-6-oxo-6,7,8,9-tetrahydropyrido[3′,2′:4,5]pyrrolo[1,2-a]pyrazine-2-carboxamide], for which the IC50 is 3.4 ± 2.1 µM in the data set on SUM149-PTXR [2], 0.5 to 12.3 µM in [4], 0.3 to 9.1 µM in data set [5] and 4.5 ± 1.4 µM with SUM149-PTXR [3]. For the same compound, the “Solubility, 20 mg/ml solution” value in [1] (diluted in DMEM) is recorded as “Precipitate”.

Regarding `C[C@@H]1CNC(=O)c2cc3ccc(C(=O)Nc4cnn(Cc5ccc(N)cc5)c4)nc3n21` [Compound 25, (R)—N-(1-(4-aminobenzyl)-1H-pyrazol-4-yl)-9-methyl-6-oxo-6,7,8,9-tetrahydropyrido[3′,2′:4,5]pyrrolo[1,2-a]pyrazine-2-carboxamide hydrochloride salt], the “Tumors with reduced P-YB-1 signaling (3 and 21 days combined)” value in the data set with P-YB-1 is 12/12. The same compound came in with a 50% inhibitory concentration (IC50) in the data set on SUM149-PTXR [2] of 5.2 ± 4.2 µM. Besides, the “Solubility for systemic delivery in mice (qualitative)” value in data set [1] is given as “superior solubility”. Further, in data set [1] (setting [9]), the “Solubility, 20 mg/ml solution” value was “Soluble” and the “pH of 20 mg/ml solution” value was determined as 2. The “Loss of P-YB-1” value in data set [6] (0.01, 0.1, 1, or 10 uM, 24 hrs) is “dose dependent loss of P-YB-1”.

For the compound `C[C@@H]1CNC(=O)c2cc3ccc(C(=O)Nc4cnn(Cc5ccc(CN)cc5)c4)nc3n21` [Compound 26, (R)—N-(1-(4-(aminomethyl)benzyl)-1H-pyrazol-4-yl)-9-methyl-6-oxo-6,7,8,9-tetrahydropyrido[3′,2′:4,5]pyrrolo[1,2-a]pyrazine-2-carboxamide hydrochloride salt], the IC50 with SUM149-PTXR [2] was 8.8 ± 2.5 µM; in data set [4] it was 1.9 to 15.5 µM; in data set [5], 1.5 to 12.3 µM; in the data set on SUM149-PTXR [3] it was 6.5 ± 2.1 µM. For the same compound, the “Solubility, 20 mg/ml solution” value in data set [1] (setting [10]) is listed as “Soluble”. Further, the “pH of 20 mg/ml solution” value in [1] (setting [10]) is 2-9.
